# Results from PubChem BioAssay AID330 (DTP/NCI, 2004).
# Where “and” joins values, the source holds several entries; their conditions need not be identical. Identical values can stand only once. Toxic doses and inconclusive results are not listed.
# System: P388 leukemia ip, CD2F1 mice, survival T/C
# Test: NCI In Vivo Anticancer Drug Screen. Data for tumor model P388 Leukemia (intraperitoneal) in CD2F1 (CDF1) mice
# Settings: endpoint: median survival time, higher = longer survival
# Procedure, shortened: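 Mice carrying the transplanted tumor received test compound or vehicle. Survival was recorded in each group, and the value is the treated-group measurement divided by that of the vehicle-treated control group.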
# [1] = dose: 60.0 mg/kg/injection, schedule: Q01DX005 (ip), vehicle: Klucel (hydroxypropylcellulose) (HPC)
# [2] = dose: 120.0 mg/kg/injection, schedule: Q01DX005 (ip), vehicle: Klucel (hydroxypropylcellulose) (HPC)
# [3] = dose: 50.0 mg/kg/injection, schedule: Q01DX009 (ip), vehicle: saline with Tween-80
# [4] = dose: 100.0 mg/kg/injection, schedule: Q01DX009 (ip), vehicle: saline with Tween-80
# [5] = dose: 200.0 mg/kg/injection, schedule: Q01DX009 (ip), vehicle: saline with Tween-80
# [6] = dose: 400.0 mg/kg/injection, schedule: Q01DX009 (ip), vehicle: saline with Tween-80
# [7] = dose: 60.0 mg/kg/injection, schedule: Q01DX005 (ip), vehicle: saline with Tween-80
# [8] = dose: 120.0 mg/kg/injection, schedule: Q01DX005 (ip), vehicle: saline with Tween-80
# [9] = dose: 25.0 mg/kg/injection, schedule: Q01DX009 (ip), vehicle: Klucel (hydroxypropylcellulose) (HPC)
# [10] = dose: 50.0 mg/kg/injection, schedule: Q01DX009 (ip), vehicle: Klucel (hydroxypropylcellulose) (HPC)
# [11] = dose: 100.0 mg/kg/injection, schedule: Q01DX009 (ip), vehicle: Klucel (hydroxypropylcellulose) (HPC)
# [12] = dose: 200.0 mg/kg/injection, schedule: Q01DX009 (ip), vehicle: Klucel (hydroxypropylcellulose) (HPC)
# [13] = dose: 100.0 mg/kg/injection, schedule: Q04DX003 (ip), vehicle: Klucel (hydroxypropylcellulose) (HPC)
# [14] = dose: 200.0 mg/kg/injection, schedule: Q04DX003 (ip), vehicle: Klucel (hydroxypropylcellulose) (HPC)
# [15] = dose: 50.0 mg/kg/injection, schedule: Q01DX005 (ip), vehicle: Klucel (hydroxypropylcellulose) (HPC)
# [16] = dose: 100.0 mg/kg/injection, schedule: Q01DX005 (ip), vehicle: Klucel (hydroxypropylcellulose) (HPC)
# [17] = dose: 200.0 mg/kg/injection, schedule: Q01DX005 (ip), vehicle: Klucel (hydroxypropylcellulose) (HPC)
compound,measurement,setting,value
COC(=O)C1C2CC3c4[nH]c5c([N+](=O)[O-])c(OC)ccc5c4CCN3CC2CC(OC(=O)c2cc(OC)c(OC)c(OC)c2)C1OC (configuration not stated),T/C,"dose: 9.38 mg/kg/injection, schedule: Q01DX005 (ip), vehicle: Klucel (hydroxypropylcellulose) (HPC)",98 % of control
same,T/C,"dose: 18.75 mg/kg/injection, schedule: Q01DX005 (ip), vehicle: Klucel (hydroxypropylcellulose) (HPC)",95 % of control
same,T/C,"dose: 37.5 mg/kg/injection, schedule: Q01DX005 (ip), vehicle: Klucel (hydroxypropylcellulose) (HPC)",96 % of control
same,T/C,"dose: 75.0 mg/kg/injection, schedule: Q01DX005 (ip), vehicle: Klucel (hydroxypropylcellulose) (HPC)",86 % of control
CCn1c(-c2c(Cl)cc(O)cc2Cl)cc2c(Cl)cc(O)cc21,T/C,[1],87 % of control
same,T/C,[2],92 % of control
C=CN1C(=O)NC2(CCCCC2)C1=O,T/C,"dose: 25.0 mg/kg/injection, schedule: Q04DX003 (ip), vehicle: saline with Tween-80",100 % of control
same,T/C,"dose: 50.0 mg/kg/injection, schedule: Q04DX003 (ip), vehicle: saline with Tween-80",100 % of control
same,T/C,"dose: 100.0 mg/kg/injection, schedule: Q04DX003 (ip), vehicle: saline with Tween-80",90 % of control
O=c1oc2ccccc2c2c1cnn2-c1ccccc1,T/C,[1],103 % of control
same,T/C,[2],105 % of control
same,T/C,"dose: 240.0 mg/kg/injection, schedule: Q01DX005 (ip), vehicle: Klucel (hydroxypropylcellulose) (HPC)",104 % of control
COc1ccc(C2OCOCC2C)cc1 (configuration not stated),T/C,"dose: 25.0 mg/kg/injection, schedule: Q01DX009 (ip), vehicle: saline with Tween-80",103 % of control
same,T/C,[3],100 % of control
same,T/C,[4],103 % of control
same,T/C,[5],101 % of control
same,T/C,[6],95 % of control
O=C1c2cccnc2-c2ncccc21,T/C,[7],93 % of control
same,T/C,[8],91 % of control
CN(C)c1ccc(N2C(N)=NC(N)=NC2(C)C)cc1,T/C,"dose: 15.0 mg/kg/injection, schedule: Q01DX005 (ip), vehicle: saline",94 % of control
same,T/C,"dose: 30.0 mg/kg/injection, schedule: Q01DX005 (ip), vehicle: saline",95 % of control
same,T/C,"dose: 60.0 mg/kg/injection, schedule: Q01DX005 (ip), vehicle: saline",98 % of control and 95 % of control
COC1CCCCC1C(=O)C(C#N)C1CCCCC1C1CCCCC1 (configuration not stated),T/C,"dose: 50.0 mg/kg/injection, schedule: Q01DX005 (ip), vehicle: saline with Tween-80",100 % of control
same,T/C,"dose: 100.0 mg/kg/injection, schedule: Q01DX005 (ip), vehicle: saline with Tween-80",98 % of control
same,T/C,"dose: 200.0 mg/kg/injection, schedule: Q01DX005 (ip), vehicle: saline with Tween-80",96 % of control
ClC1(Cl)C2CCCCC21 (configuration not stated),T/C,[3],100 % of control
same,T/C,[4],90 % of control
O=C(CC1(O)C(=O)N(CN2CCCCC2)c2ccccc21)c1ccccc1 (configuration not stated),T/C,[3],110 % of control
same,T/C,[4],97 % of control
CN(C(=S)SSC(=S)N(C)c1ccccc1)c1ccccc1,T/C,[9],91 % of control
same,T/C,[10],93 % of control
same,T/C,[11],97 % of control
same,T/C,[12],101 % of control
O=C1CN(C2CCCCC2)CC(=O)N2CCCCN12,T/C,"dose: 50.0 mg/kg/injection, schedule: Q01DX005 (ip), vehicle: saline",108 % of control
same,T/C,"dose: 100.0 mg/kg/injection, schedule: Q01DX005 (ip), vehicle: saline",105 % of control
same,T/C,"dose: 200.0 mg/kg/injection, schedule: Q01DX005 (ip), vehicle: saline",103 % of control
Clc1cccc(N=Cc2ccc(C=Nc3cccc(Cl)c3Cl)cc2)c1Cl,T/C,[10],94 % of control
same,T/C,[11],91 % of control
same,T/C,[12],90 % of control
O=C(Nc1ccc(F)cc1)Nc1nccs1,T/C,"dose: 17.5 mg/kg/injection, schedule: Q01DX009 (ip), vehicle: Klucel (hydroxypropylcellulose) (HPC)",108 % of control
same,T/C,"dose: 35.0 mg/kg/injection, schedule: Q01DX009 (ip), vehicle: Klucel (hydroxypropylcellulose) (HPC)",110 % of control
same,T/C,[3],96 % of control
same,T/C,"dose: 70.0 mg/kg/injection, schedule: Q01DX009 (ip), vehicle: Klucel (hydroxypropylcellulose) (HPC)",108 % of control
same,T/C,[4],95 % of control
same,T/C,"dose: 140.0 mg/kg/injection, schedule: Q01DX009 (ip), vehicle: Klucel (hydroxypropylcellulose) (HPC)",115 % of control
same,T/C,[5],104 % of control
c1ccc(-c2nc(-c3ccc4c(c3)OCO4)[nH]c2-c2ccccc2)cc1,T/C,[10],97 % of control
same,T/C,[11],114 % of control
same,T/C,[12],112 % of control
CN1C(=O)c2c(ccc3c2OCO3)[C@@]2(C)C(=O)Cc3cc4c(cc3[C@H]12)OCO4,T/C,"dose: 6.25 mg/kg/injection, schedule: Q01DX005 (ip), vehicle: Klucel (hydroxypropylcellulose) (HPC)",89 % of control
same,T/C,"dose: 12.5 mg/kg/injection, schedule: Q01DX005 (ip), vehicle: Klucel (hydroxypropylcellulose) (HPC)",88 % of control
c1ccc(CN2COc3c(ccc4c3OCN(Cc3ccccc3)C4)C2)cc1,T/C,"dose: 3.12 mg/kg/injection, schedule: Q01DX009 (ip), vehicle: Klucel (hydroxypropylcellulose) (HPC)",107 % of control
same,T/C,"dose: 6.25 mg/kg/injection, schedule: Q01DX009 (ip), vehicle: Klucel (hydroxypropylcellulose) (HPC)",104 % of control and 95 % of control
same,T/C,"dose: 12.5 mg/kg/injection, schedule: Q01DX009 (ip), vehicle: Klucel (hydroxypropylcellulose) (HPC)",103 % of control
same,T/C,[9],94 % of control
CC(=O)c1ccccc1OCC(O)CNc1ccc(Cl)cc1C(=O)c1ccccc1 (configuration not stated),T/C,[7],99 % of control and 92 % of control
same,T/C,[8],92 % of control
same,T/C,"dose: 240.0 mg/kg/injection, schedule: Q01DX005 (ip), vehicle: saline with Tween-80",89 % of control and 96 % of control
C1=NC(C2CC2)c2ccc3c([nH]c4ccccc43)c2N1 (configuration not stated),T/C,"dose: 100.0 mg/kg/injection, schedule: Q04DX002 (ip), vehicle: Klucel (hydroxypropylcellulose) (HPC)",101 % of control
same,T/C,"dose: 200.0 mg/kg/injection, schedule: Q04DX002 (ip), vehicle: Klucel (hydroxypropylcellulose) (HPC)",90 % of control
CN=C(NC)c1ccc(NC(=O)/C=C\c2ccc(C(=O)Nc3ccc(C(=NC)NC)cc3)cc2)cc1,T/C,"dose: 3.13 mg/kg/injection, schedule: Q01DX009 (ip), vehicle: saline with Tween-80",172 % of control
same,T/C,"dose: 4.4 mg/kg/injection, schedule: Q04DX003 (ip), vehicle: saline with Tween-80",150 % of control
same,T/C,"dose: 6.25 mg/kg/injection, schedule: Q01DX009 (ip), vehicle: saline with Tween-80",113 % of control
same,T/C,"dose: 10.0 mg/kg/injection, schedule: Q04DX003 (ip), vehicle: saline with Tween-80",155 % of control
same,T/C,"dose: 12.5 mg/kg/injection, schedule: Q01DX009 (ip), vehicle: saline with Tween-80",95 % of control
same,T/C,"dose: 15.0 mg/kg/injection, schedule: Q04DX003 (ip), vehicle: saline with Tween-80",155 % of control
O=C(NC(CO)C(O)c1ccc(N=Nc2cccc3ccccc23)cc1)C(Cl)Cl (configuration not stated),T/C,[4],95 % of control
same,T/C,[5],104 % of control
same,T/C,[6],104 % of control
NC(=S)c1ccc(N)cc1,T/C,[13],100 % of control
same,T/C,[14],106 % of control
O=C1C(=C2C=CN(CCN3CCCCC3)C=C2)C(=O)c2ccccc21,T/C,[10],100 % of control
same,T/C,[11],100 % of control
same,T/C,[12],87 % of control
CCOC(=O)C1CCCN(C)C1 (configuration not stated),T/C,[13],104 % of control
same,T/C,[14],100 % of control
same,T/C,"dose: 400.0 mg/kg/injection, schedule: Q04DX003 (ip), vehicle: Klucel (hydroxypropylcellulose) (HPC)",100 % of control
COc1ccc2oc3cccc(NCCN(C)C)c3c(=O)c2c1,T/C,"dose: 25.0 mg/kg/injection, schedule: Q01DX005 (ip), vehicle: Klucel (hydroxypropylcellulose) (HPC)",105 % of control
same,T/C,[15],100 % of control
same,T/C,[16],107 % of control
same,T/C,[17],107 % of control
CSC(=O)/N=C(\N)NC(=O)c1ccccc1,T/C,[15],95 % of control
same,T/C,[16],94 % of control
same,T/C,[17],92 % of control
CC1=Nc2ccc(Cl)cc2N=C(C)C1,T/C,"dose: 100.0 mg/kg/injection, schedule: Q01DX001 (ip), vehicle: saline",106 % of control
same,T/C,"dose: 200.0 mg/kg/injection, schedule: Q01DX001 (ip), vehicle: saline",107 % of control
same,T/C,"dose: 400.0 mg/kg/injection, schedule: Q01DX001 (ip), vehicle: saline",100 % of control
